Source: patent publication US7138543B2, “Thiolalkyl benzoic acid derivatives” (Guilford Pharmaceuticals Inc., priority 2001, dated 2006)

Key:
Assay type in all cases: in vivo
BB/W diabetic rats = assay: Nerve conduction velocity in BB/W model; settings: 10 mg/kg daily; vs diabetic vehicle controls, from 8 weeks to six months, FIG. 12
Excerpt: Male BB/W rats (BRI, Mass) spontaneously develop a cell mediated autoimmune destruction of pancreatic B cells, resulting in onset of insulin-dependent (Type I) diabetes (Awata, Guberski, Endocrinology (1995) 136(12):5731–5). […] This renders them valuable for experimental trials of new compounds for future treatments of this major disorder. In the present study, Compound A and Compound D were examined for their ability to alter the progression of diabetic neuropathy. The rats received daily injection of Compound A or Compound D (10 mg/kg i.p.) or vehicle, starting at the onset of diabetes (hyperglycemia) and up to 6 months thereafter. Another group of non-diabetic rats also receiving vehicle were tested. All animals were continuously monitored for body weight, urine volume, blood sugar and glycated haemoglobin. In the first month of the study, all animals were tested for thermal nociception in a Hargreaves apparatus, weekly. After the first month this was done biweekly and then monthly. […]
Nerve conduction velocity was also measured every two weeks through the first eight weeks of treatment and every month thereafter through to the six months of treatment (see De Koning et al., Peptides, Vol. 8, No. 3, pp. 415–22 (1987) for a description of the experimental method). […]

transgenic G1H mice = assay: Onset of ALS in transgenic mice model of FALS; settings: for DISEASE ONSET: 50 mg/kg daily intraperitoneal
Protocol: Effect of NAALADase Inhibitors on Onset of ALS
The effect of NAALADase inhibitors on the onset of ALS was tested using the transgenic mice model of familial amyotrophic lateral sclerosis (“FALS”), which is detailed in Gurney, M., Annals of Neurology (1996) 39:147–157, and otherwise well known in the art. One month old transgenic G1H mice were treated with daily intraperitoneal injections of a vehicle (50 mM HEPES-buffered saline) or a NAALADase inhibitor (50 mg/kg Compound A). Clinical symptoms of the mice were monitored daily. The onset of clinical disease was scored by examining each mouse for its shaking of limbs when suspended in the air by its tail, cross spread of spinal reflexes, hindlimb paralysis, body weight and wheel running activity.

[1] = system: rats with unilateral elevation of intraocular pressure; assay: Experimental rat glaucoma (IOP elevation, optic nerve fiber counting); settings: 8 week group
Protocol: Protective Effect of NAALADase Inhibitors in Experimental Rat Glaucoma
All experiments complied with the Association for Research in Vision and Ophthalmology Statement for the Use of Animals in Ophthalmic and Vision Research. 82 male Brown Norway rats (Rattus norvegicus), each weighing approximately 250 gm, were treated using procedures approved by the Animal Care Committee of the Johns Hopkins University School of Medicine. The rats were housed with a 12 hour light/12 hour dark cycle and fed ad libitum.
EXPERIMENTAL GLAUCOMA: Unilateral elevation of intraocular pressure (“IOP”) was produced in 56 rats by microinjection of hypertonic saline into episcleral veins, following procedures described in Morrison, J. et al., IOVS (March 1998) 39:526–531. Beginning on the day of IOP elevation, the rats were treated daily with intraperitoneal injections of either a vehicle (23 rats with 50 mM HEPES-buffered saline) or a NAALADase inhibitor (11 rats with 10 mg/kg of Compound A and 22 rats with 10 mg/kg of Compound B). 11 saline treated rats, 11 Compound A treated rats and 11 Compound B treated rats were sacrificed at 8 weeks, and the remaining rats at 12 weeks, after initial IOP elevation.
OPTIC NERVE COUNTING: The rats were sacrificed by exsanguination under deep pentobarbital anesthesia. They were perfused through the heart with 2% paraformaldehyde/2% glutaraldehyde in 0.1 M phosphate buffer, pH 7.2, and the eyes with attached optic nerves were removed. A cross-section of the optic nerve from both experimental (glaucoma or transection) and control eyes was removed 1.5 mm posterior to the globe, 1 mm in thickness, and post-fixed in 2% osmium tetroxide in buffer. These were processed into epoxy resin, sectioned at 1 micron and stained with toluidine blue.
The area of the optic nerve cross-section was measured by outlining its outer border at 10× magnification on an image analysis system (Universal Imaging Corp., Westchester, Pa.) with Synsys digital camera and Metamorph software. Three area measurements were taken and the mean value was determined. To measure the density and fiber diameter distributions, images were captured with a 100× phase contrast objective from 10 different areas of each nerve. These were edited to eliminate non-neural objects and the size of each axon internal to the myelin sheath (its minimum diameter) and the density of axons/square mm were calculated for each image and nerve. The mean density was multiplied by total nerve area to yield fiber number for each nerve. The total fiber number in glaucoma or transection nerves was compared to the normal, fellow eye of each rat to yield a percent loss value. The number of axons counted among the 10 images was an approximately 20% sample of the 80–90,000 axons in normal rat nerves. The person measuring axon number was masked to the protocol conducted on the nerves.

With `O=C(O)CCC(CP(=O)(O)Cc1c(F)c(F)c(F)c(F)c1F)C(=O)O` (stereo not shown) [Compound A] the nerve conduction velocity (BB/W diabetic rats) was “significantly less severe nerve conduction deficits”, the “DIFFERENCE in disease onset vs vehicle” value (transgenic G1H mice; Study 1) was 32 and the “DISEASE ONSET” value (transgenic G1H mice; Study 1) was 221 days. For the same compound, the “DIFFERENCE in disease onset vs vehicle” value (transgenic G1H mice; Study 2) was 25, the “DISEASE ONSET” value (transgenic G1H mice; Study 2) was 166 days and the “FIBER NUMBER” value ([1]; 10 mg/kg daily intraperitoneal) was 79156 ± 2436. The “PERCENT DIFFERENCE in fiber number between glaucoma and normal eye” value ([1]; positive value indicates fewer fibers in the glaucoma eye) was −1.82 ± 2.92%.
